IC50 and inhibition data for 17 compounds are collected here from patent publication US20080306044A1, “SPIROBENZOAZEPANES AS VASOPRESSIN ANTAGONISTS” (priority 2007, published 2008).

The structures appear in SMILES notation.

Assay [1] concerns the target T1, human V2 receptor (Homo sapiens, UniProt P30518). The assay can be described thus: In-vitro binding assay (3H-arginine-8-vasopressin), V2. The note with it: for IC50: membrane containing human V2 receptor, 3H-arginine-8-vasopressin 0.65-0.75 nM; for inhibition at 0.2 µM: test concentration of 0.2 μM, read-out: V2 binding percent inhibition (in parentheses, where an IC50 value was not obtained). The procedure: Assay buffer is 50 mM Tris-Cl, 5 mM MgCl2, 0.1% BSA (pH 7.5) containing 5 μg/mL of aprotinin, leupeptin, pepstatin, 50 μg/mL bacitracin, and 1 mM Pefabloc (4-(2-aminoethyl)-benzenesulfonyl fluoride, hydrochloride manufactured by Roche Diagnostics Corporation, Indianapolis, Ind. and distributed by Boehringer Mannheim). […] Into the wells of a 96-well round bottom polypropylene plates are added buffer, test compound, membrane (containing human V1a or V2 receptor), and H3 vasopressin. The reaction plates are allowed to sit at room temperature for one hour. The samples are filtered through Unifilter GF/C plates (PerkinElmer Life Sciences, Boston, Mass.) presoaked in 0.3 polyethyleneimine. The plates are washed 5 times with cold physiological saline containing 0.05% Tween 20. After drying, the bottom of the filter plates are sealed and 0.025 mL of Microscint-20 (Packard Instrument Co, Meriden, Conn.) is added to each filter. The top of the plate is sealed, and the plate is counted.
(§1) The % inhibition for the test results was calculated according to the formula: […]

For assay [2], the target named is T2, human V1a receptor (Homo sapiens, UniProt P37288).
T2 construct: expressed in transfected cells
The assay can be described thus: In-vitro binding assay (3H-arginine-8-vasopressin), V1a. The note with it: for IC50: membrane containing human V1a receptor, 3H-arginine-8-vasopressin 0.65-0.75 nM; for inhibition at 0.2 µM: test concentration of 0.2 μM, read-out: V1a binding percent inhibition (in parentheses, where an IC50 value was not obtained). The procedure:
Assay buffer is 50 mM Tris-Cl, 5 mM MgCl2, 0.1% BSA (pH 7.5) containing 5 μg/mL of aprotinin, leupeptin, pepstatin, 50 μg/mL bacitracin, and 1 mM Pefabloc (4-(2-aminoethyl)-benzenesulfonyl fluoride, hydrochloride manufactured by Roche Diagnostics Corporation, Indianapolis, Ind. and distributed by Boehringer Mannheim). H3 vasopressin is ^3H-arginine-8-vasopressin (NEN Life Sciences, Boston, Mass.; 68.5 Ci/mmol, final concentration in assay is 0.65-0.75 nM). Into the wells of a 96-well round bottom polypropylene plates are added buffer, test compound, membrane (containing human V1a or V2 receptor), and H3 vasopressin. The reaction plates are allowed to sit at room temperature for one hour. The samples are filtered through Unifilter GF/C plates (PerkinElmer Life Sciences, Boston, Mass.) presoaked in 0.3 polyethyleneimine. The plates are washed 5 times with cold physiological saline containing 0.05% Tween 20. After drying, the bottom of the filter plates are sealed and 0.025 mL of Microscint-20 (Packard Instrument Co, Meriden, Conn.) is added to each filter. The top of the plate is sealed, and the plate is counted. Non-specific binding is determined by the addition of 1.25 μM arginine-8-vasopressin in those wells.
as §1
Where an IC50 value was not obtained, the percent inhibition values are shown in parentheses (*) and were obtained at a test concentration of 0.2 μM.

Assay [3] addresses T2, human V1a receptor. The assay can be described thus: cell-based. The procedure: The V1a receptor is a G-protein coupled receptor, which upon activation triggers an increase in intracellular calcium mobilization. To evaluate compounds for their functional V1a receptor activity, HEK-293 cells were transfected with the human V1a receptor (V1a-HEK cells). HEK-293 cells were grown in DMEM (Dulbecco's modified Eagle Media) supplemented with 10% FBS and glutamine. HEK-cells were passed biweekly by trypsinization and seeded into 96 well plates at 33,000 cells per well. HEK-293 cells were transfected with human V1a receptor DNA using DMRIE-C reagent from Life Technologies (Carlsbad, Calif.). Stable lines were generated by selecting cells grown in culture media containing geneticin. After growing in Packard Clear-View black 96 well plates for 4-6 days, V1a-HEK cells were loaded with the calcium-sensitive fluorescence dye, FLUO-3 AM. Changes in intracellular calcium mobilization were measured by quantitating intracellular fluorescence using FLIPR (Fluorometric Imaging Plate Reader; Molecular Devices, Sunnyvale, Calif.). Test compounds were first added to the cells and the resulting changes in fluorescence measured to detect receptor agonistic activity. Five minutes later the cells were challenged with vasopressin to test compounds for their antagonistic activity. Receptor antagonists inhibit the ability of vasopressin to stimulate increases in intracellular fluorescence.

Assay [4] deals with T1, human V2 receptor. As to the kind of experiment: V2 vasopressin receptor functional activity (cAMP accumulation). The assay is classed as cell-based. Set-up: expressed in transfected cells; host or cells: HEK-293. The note with it: V2-HEK cells; block of vasopressin-stimulated cAMP accumulation; read-out: V2 (functional) IC50. The method, then: The V2 receptor is also a G-protein coupled receptor which when activated induces an increase in cAMP turnover. Antagonism against the V2 receptor is determined by measuring cAMP accumulation in transfected HEK-293 cells expressing the human V-2 receptor (V2-HEK cells). Compounds are tested for their ability to block the stimulatory effects of vasopressin on cAMP accumulation. The cell content of cAMP is measured by radioimmunoassay using NEN flashplates.
On the technique in general: cAMP levels reflect the balance of adenylyl cyclase and phosphodiesterase activity.

Where [5] appears, read: V1 (functional) IC50, V1a-HEK cells, inhibition of vasopressin-stimulated intracellular calcium mobilization.
Setting [6] is: V1a-HEK cells, inhibition of vasopressin-stimulated intracellular calcium mobilization, read-out: V1 (functional) IC50.

As a reminder, the IC50 is the point on the concentration scale where inhibition reaches its midpoint. In general, inhibition refers to how much of the control response was suppressed.

T1 sequence (P30518 whole entry): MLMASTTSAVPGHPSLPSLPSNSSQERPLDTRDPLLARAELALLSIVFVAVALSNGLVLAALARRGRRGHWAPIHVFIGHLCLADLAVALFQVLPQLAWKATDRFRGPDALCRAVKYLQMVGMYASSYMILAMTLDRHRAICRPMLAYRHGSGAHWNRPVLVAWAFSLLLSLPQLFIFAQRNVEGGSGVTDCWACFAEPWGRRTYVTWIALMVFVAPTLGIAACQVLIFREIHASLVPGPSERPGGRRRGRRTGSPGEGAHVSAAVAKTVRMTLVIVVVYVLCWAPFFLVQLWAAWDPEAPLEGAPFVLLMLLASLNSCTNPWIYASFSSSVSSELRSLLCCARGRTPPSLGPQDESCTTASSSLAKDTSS
T2 sequence (P37288 whole entry): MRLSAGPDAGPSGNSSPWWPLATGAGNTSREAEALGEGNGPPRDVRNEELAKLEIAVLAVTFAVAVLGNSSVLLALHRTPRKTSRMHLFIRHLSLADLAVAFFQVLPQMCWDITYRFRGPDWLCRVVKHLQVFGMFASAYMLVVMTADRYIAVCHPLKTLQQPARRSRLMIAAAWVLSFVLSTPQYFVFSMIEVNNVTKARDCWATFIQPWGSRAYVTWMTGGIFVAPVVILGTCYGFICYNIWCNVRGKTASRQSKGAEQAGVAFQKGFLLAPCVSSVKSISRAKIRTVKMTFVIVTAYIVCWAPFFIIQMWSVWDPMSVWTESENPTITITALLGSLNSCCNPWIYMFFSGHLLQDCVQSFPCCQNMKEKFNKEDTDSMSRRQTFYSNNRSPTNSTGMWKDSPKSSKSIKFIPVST

Consider `CON=C1CCCC12CCN(C(=O)c1ccc(NC(=O)c3cc(F)ccc3Cl)cc1)c1ccccc1C2` (stereo not shown) [Cpd 2, N-[4-(2-chloro-5-fluoro-phenylcarbonyl)amino-phenylcarbonyl]-2-methoxyimino-spiro[cyclopentane-1,4′-benzo[b]azepane]], for which the IC50 came to 44 nM at human V2 receptor [1] and 7 nM on human V1a receptor [2].

For the compound `Cc1ccccc1C(=O)Nc1ccc(C(=O)N2CCC3(CCCC3=NO)Cc3ccccc32)cc1` (stereo not shown) [Cpd 49, N-[4-(2-methyl-phenylcarbonyl)amino-phenylcarbonyl]-2-hydroxyimino-spiro[cyclopentane-1,4′-benzo[b]azepane]], the IC50 at human V2 receptor [1] was 34 nM; on human V1a receptor [2] it was 12 nM.

Consider `COc1cc(C(=O)N2CCC3(CCCC3N)Cc3ccccc32)ccc1NC(=O)c1cc(F)ccc1Cl` (stereo not shown) [Cpd 8, 2-amino-N-[3-methoxy-4-(2-chloro-5-fluoro-phenylcarbonyl)amino-phenylcarbonyl]-spiro[cyclopentane-1,4′-benzo[b]azepane]], for which the IC50 is 83 nM on human V2 receptor [1] and 16 nM on human V1a receptor [2].

`O=C(Nc1ccc(C(=O)N2CCC3(CCCC3=NO)Cc3ccccc32)cn1)c1cc(F)ccc1Cl` (stereo not shown) [Cpd 10, N-[6-(2-chloro-5-fluoro-phenylcarbonyl)amino-pyridin-3-ylcarbonyl]-2-hydroxyimino-spiro[cyclopentane-1,4′-benzo[b]azepane]]: the IC50 at human V2 receptor [1] stood at 70 nM; on human V1a receptor [2] it was 60 nM.

With `Cc1ccc(F)cc1C(=O)Nc1ccc(C(=O)N2CCC3(CCCC3=NO)Cc3ccccc32)cc1` (stereo not shown) [Cpd 48, N-[4-(2-methyl-5-fluoro-phenylcarbonyl)amino-phenylcarbonyl]-2-hydroxyimino-spiro[cyclopentane-1,4′-benzo[b]azepane]], the IC50 came to 26 nM at human V2 receptor [1] and 16 nM at human V1a receptor [2].

With `Cc1ccn(-c2ccc(C(=O)N3CCC4(CCCC4=NO)Cc4ccccc43)cc2)n1` (stereo not shown) [Cpd 47, N-[4-(3-methyl-1H-pyrazol-1-yl)-phenylcarbonyl]-2-hydroxyimino-spiro[cyclopentane-1,4′-benzo[b]azepane]], the inhibition at 0.2 µM stood at 62% on human V2 receptor [1] and 86% on human V1a receptor [2].

`COc1cc(C(=O)N2CCC3(CCCC3N)Cc3ccccc32)ccc1NC(=O)c1cccc(F)c1` (stereo not shown) [Cpd 50, 2-amino-N-[3-methoxy-4-(3-fluoro-phenylcarbonyl)amino-phenylcarbonyl]-spiro[cyclopentane-1,4′-benzo[b]azepane]]: the inhibition at 0.2 µM on human V2 receptor [1] worked out at 9%; at human V1a receptor [2], 89%.

Regarding `COc1cc(C(=O)N2CC[C@@]3(CCC(=NN(C)C)C3)Cc3ccccc32)ccc1NC(=O)c1cc(F)ccc1Cl` [Cpd 27, (R)—N-[3-methoxy-4-(2-chloro-5-fluoro-phenylcarbonyl)amino-phenylcarbonyl]-3-dimethylaminoimino-spiro[cyclopentane-1,4′-benzo[b]azepane]], the IC50 amounted to 130 nM on human V1a receptor [3] (setting [5]) and 390 nM at human V2 receptor [4].

For the compound `O=C(c1ccc(N2CCCC2)cc1)N1CCC2(CCCC2=NO)Cc2ccccc21` (stereo not shown) [Cpd 46, N-[4-pyrrolidin-1-yl-phenylcarbonyl]-2-hydroxyimino-spiro[cyclopentane-1,4′-benzo[b]azepane]], the inhibition at 0.2 µM at human V2 receptor [1] was 40%; at human V1a receptor [2] it was 73%.

As for `COc1cc(C(=O)N2CC[C@@]3(CC[C@@H](NS(N)(=O)=O)C3)Cc3ccccc32)ccc1NC(=O)c1cc(F)ccc1Cl` [Cpd 35, (1R,3R)-3-aminosulfonylamino-N-[3-methoxy-4-(2-chloro-5-fluoro-phenylcarbonyl)amino-phenylcarbonyl]-spiro[cyclopentane-1,4′-benzo[b]azepane]], the IC50 turned out to be 78 nM at human V1a receptor [3] (setting [5]) and 44 nM on human V2 receptor [4].

Take `COc1cc(C(=O)N2CC[C@@]3(CCC(=CC(N)=O)C3)Cc3ccccc32)ccc1NC(=O)c1cc(F)ccc1Cl` [Cpd 32, (R)-3-aminocarbonylmethylene-N-[3-methoxy-4-(2-chloro-5-fluoro-phenylcarbonyl)amino-phenylcarbonyl]-spiro[cyclopentane-1,4′-benzo[b]azepane]]: the 50% inhibitory concentration (IC50) at human V1a receptor [3] (setting [5]) came out at 170 nM; at human V2 receptor [4], 34 nM.

On to `COc1cc(C(=O)N2CCC3(CCCC3NS(N)(=O)=O)Cc3ccccc32)ccc1NC(=O)c1cc(F)ccc1Cl` (stereo not shown) [Cpd 33, 2-aminosulfonylamino-N-[3-methoxy-4-(2-chloro-5-fluoro-phenylcarbonyl)amino-phenylcarbonyl]-spiro[cyclopentane-1,4′-benzo[b]azepane]], for which the results for the IC50 against human V1a receptor [3] and on human V2 receptor [4] were 330 nM and 31 nM, respectively.

As to `COC(=O)C=C1CC[C@@]2(CCN(C(=O)c3ccc(NC(=O)c4cc(F)ccc4Cl)c(OC)c3)c3ccccc3C2)C1` [Cpd 26, (R)—N-[3-methoxy-4-(2-chloro-5-fluoro-phenylcarbonyl)amino-phenylcarbonyl]-3-methoxycarbonylmethylene-spiro[cyclopentane-1,4′-benzo[b]azepane]], the 50% inhibitory concentration (IC50) at human V1a receptor [3] (setting [5]) was found to be 4000 nM; on human V2 receptor [4], 70 nM.

Take `COc1cc(C(=O)N2CC[C@]3(C=C(C(=O)NS(N)(=O)=O)CC3)Cc3ccccc32)ccc1NC(=O)c1cc(F)ccc1Cl` [Cpd 13, (R)-3-aminosulfonylaminocarbonyl-N-[3-methoxy-4-(2-chloro-5-fluoro-phenylcarbonyl)amino-phenylcarbonyl]-spiro[cyclopent-2-ene-1,4′-benzo[b]azepane]]: the IC50 on human V1a receptor [3] (setting [6]) is 27 nM; at human V2 receptor [4], 11 nM.

As to `COc1cc(C(=O)N2CC[C@@]3(CCC(=CC(=O)NCCN(C)C)C3)Cc3ccccc32)ccc1NC(=O)c1cc(F)ccc1Cl` [Cpd 31, (R)-N-[3-methoxy-4-(2-chloro-5-fluoro-phenylcarbonyl)amino-phenylcarbonyl]-3-(2-dimethylamino-ethyl)aminocarbonylmethylene-spiro[cyclopentane-1,4′-benzo[b]azepane]], the concentration for half-maximal inhibition (IC50) was determined as 150 nM against human V1a receptor [3] and 140 nM at human V2 receptor [4].

With `COc1cc(C(=O)N2CC[C@@]3(CCC(=CC(=O)NCCN4CCOCC4)C3)Cc3ccccc32)ccc1NC(=O)c1cc(F)ccc1Cl` [Cpd 28, (R)—N-[3-methoxy-4-(2-chloro-5-fluoro-phenylcarbonyl)amino-phenylcarbonyl]-3-(2-morpholin-4-yl-ethyl)aminocarbonylmethylene-spiro[cyclopentane-1,4′-benzo[b]azepane]], the half-maximal inhibitory concentration (IC50) stood at 220 nM against human V1a receptor [3] and 200 nM on human V2 receptor [4].

In the case of `COc1cc(C(=O)N2CC[C@]3(C=C(c4nnn[nH]4)CC3)Cc3ccccc32)ccc1NC(=O)c1cc(F)ccc1Cl` [Cpd 11, (R)-N-[3-methoxy-4-(2-chloro-5-fluoro-phenylcarbonyl)amino-phenylcarbonyl]-3-tetrazol-5-yl-spiro[cyclopent-2-ene-1,4′-benzo[b]azepane]], the half-inhibitory concentration (IC50) on human V1a receptor [3] (setting [6]) is 63 nM; on human V2 receptor [4], 40 nM.
